Consider 25 compounds from patent US8293729B2 (Boehringer Ingelheim International GmbH, priority 2009, dated 2012).

One may read the EC50 as the concentration giving half of the maximal effect.

In the test the target is T1, human GPR119 receptor (Homo sapiens, UniProt Q8TDV5, S329A/T327A).
T1 construct: N-terminal leader […]; expressed in transfected cells
T1 sequence (Q8TDV5 with tags, fused parts or gaps T327A/S329A): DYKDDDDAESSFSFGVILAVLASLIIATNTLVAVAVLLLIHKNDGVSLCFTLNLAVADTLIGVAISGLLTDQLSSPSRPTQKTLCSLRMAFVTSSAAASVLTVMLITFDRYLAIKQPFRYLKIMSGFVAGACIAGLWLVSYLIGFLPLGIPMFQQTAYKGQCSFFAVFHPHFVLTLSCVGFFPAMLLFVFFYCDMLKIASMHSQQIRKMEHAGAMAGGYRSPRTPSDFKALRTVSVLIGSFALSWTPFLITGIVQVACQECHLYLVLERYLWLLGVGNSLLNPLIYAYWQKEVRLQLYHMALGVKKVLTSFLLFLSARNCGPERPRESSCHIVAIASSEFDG
Put plainly: cAMP assay (LANCE cAMP-384) in HEK293 cells stably expressing mutant human GPR119 receptor. The note with it: read-out: EC50. It is filed as cell-based. The method in brief: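 HEK293 cells stably expressing human GPR119 (T327A/S329A, modified N-terminus), 1000 cells/well, exposed to compound for 20 min at 37° C. cAMP quantified by LANCE TR-FRET against a standard curve; EC50 from 12 points, 30 μM to 100 pM, or % stimulation at 10 μM.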
On the technique in general: cAMP levels reflect the balance of adenylyl cyclase and phosphodiesterase activity.

[1] abbreviates: the 44th table, compounds 77-1 to 77-14.
[2] abbreviates: cAMP accumulation, HEK293 cells stably expressing mutant human GPR119.
Setting [3] is: the 36th table, compounds 66-1 to 66-51.
Where [4] appears, read: the 43rd table, compounds 75-1 to 75-38.

Read-outs that look alike come from different tables or passages of the source.

On to `CCc1cnc(N2CCC(ON=C3CCN(c4cc(F)c(CC(=O)N5CCC(N)CC5)cc4F)CC3)CC2)nc1` [Example 77-2], for which the EC50 under setting [1] was 0.022 µM.
Turning to `CC(C)OC(=O)N1CCC(ON=C2CCN(c3ccc(I)cn3)CC2)CC1` [Example 2-12], under setting [2], the EC50 came out at 2.36 µM.
As to `CC(C)OC(=O)N1CCC(ON=C2CCN(c3ncc(Cn4nccn4)cc3F)CC2)CC1` [Example 54-3], the EC50 (the 30th table) amounted to 0.765 µM.
Consider `CS(=O)(=O)c1ccc(N2CCC(=NOC3CCN(C(=O)OCCC4CCCCC4)CC3)CC2)c(F)c1` [Example 64-42], for which the EC50 (the 33rd table) was 0.35 µM.
`Cc1ncccc1N1CCC(=NOC2CCN(C(=O)OC(C)C)CC2)CC1` [Example 4-1, Isopropyl 4-(2′-Methyl-2,3,5,6-tetrahydro-[1,3′]bipyridinyl-4-ylideneaminooxy)piperidine-1-carboxylate]: the EC50 under setting [2] was 4.8 µM.
Same read-out and setting: the value for `CC(CO)CNC(=O)c1cc(F)c(N2CCC(=NOC3CCN(C(=O)OC(C)C)CC3)CC2)cc1F` (stereo not shown) [Example 2-77] was 0.047 µM.
With `CC(C)[C@H](N)COC(=O)N1CCC(ON=C2CCN(c3ccc(S(C)(=O)=O)cc3F)CC2)CC1` [Example 64-37], the EC50 (the 33rd table) is more than 10 µM.
As to `COc1ccc(CN2CCC(ON=C3CCN(c4ccc(S(C)(=O)=O)cc4F)CC3)CC2)cc1` [Example 66-45], the EC50 under setting [3] is 6 µM.
Regarding `CC(C)OC(=O)N1CCC(ON=C2CCN(c3cc(F)c(Cn4cnc5cccnc54)cc3F)CC2)CC1` [Example 14-6], the EC50 under setting [2] was determined as 0.647 µM.
As to `Cc1ccc(CN2CCC(ON=C3CCN(c4ccc(S(C)(=O)=O)cc4F)CC3)CC2)cc1` [Example 66-26], under setting [3], the EC50 worked out at 0.288 µM.
For the compound `CS(=O)(=O)c1ccc(N2CCC(=NOC3CCN(CC(=O)Nc4ccccc4)CC3)CC2)c(F)c1` [Example 65-2], where the note is “the 34th table, compounds 65-1 to 65-24”, the EC50 is more than 10 µM.
Take `Cc1ccc(CN2CCC(ON=C3CCN(c4ccc(S(C)(=O)=O)cc4F)CC3)CC2)c(F)c1` [Example 66-47]: under setting [3], the EC50 is 0.909 µM.
`Cc1nnnn1Cc1cc(F)c(N2CCC(=NOC3CCN(C(=O)OC(C)C)CC3)CC2)cc1F` [Example 14-15]: the EC50 under setting [2] came to 0.039 µM.
Same read-out and setting: the value for `CC(C)OC(=O)N1CCC(ON=C2CCN(c3cc(F)c(-c4cscn4)cc3F)CC2)CC1` [Example 27-19] was 3.08 µM.
For the compound `CC(C)OC(=O)N1CCC(ON=C2CCN(c3ccc(CO)cc3F)CC2)CC1` [Example 52-3], under “the 29th table”, the EC50 was 0.128 µM.
Turning to `CC(C)OC(=O)N1CCC(ON=C2CCN(c3cc(F)c(-n4cccn4)cc3F)CC2)CC1` [Example 22-3], under setting [2], the EC50 was found to be 0.062 µM.
Consider `COC(=O)c1cnc(N2CCC(ON=C3CCN(c4ccc(S(C)(=O)=O)cc4F)CC3)CC2)nc1` [Example 63-21], for which the EC50 (the 32nd table) amounted to 0.26 µM.
For the compound `CC(C)OC(=O)N1CCC(ON=C2CCN(c3cc(F)c(CC(=O)N4CC[C@H](N)C4)cc3F)CC2)CC1` [Example 75-20], the EC50 under setting [4] was 0.045 µM.
Take `CS(=O)(=O)c1ccc(N2CCC(=NOC3CCN(Cc4cccc(C(F)(F)F)c4)CC3)CC2)c(F)c1` [Example 66-30]: under setting [3], the EC50 was 1.74 µM.
As for `CC(C)OC(=O)N1CCC(ON=C2CCN(c3cc(F)c(CC(=O)N4CCC(CN(C)C)CC4)cc3F)CC2)CC1` [Example 75-38], the EC50 under setting [4] is 0.092 µM.
Take `COC(=O)CCNCc1cc(F)c(N2CCC(=NOC3CCN(C(=O)OC(C)C)CC3)CC2)cc1F` [Example 5-7]: the EC50 under setting [2] turned out to be 1.15 µM.
In the case of `CCCc1ccc(CN2CCC(ON=C3CCN(c4cc(F)c(S(C)(=O)=O)cc4F)CC3)CC2)cc1` [Example 66-53], the EC50 (the 37th table, compounds 66-52 to 66-64) worked out at 0.035 µM.
With `CCN(CC)CCCOC(=O)N1CCC(ON=C2CCN(c3ccc(S(C)(=O)=O)cc3F)CC2)CC1` [Example 64-29], under “the 33rd table”, the EC50 was more than 10 µM.
Regarding `CC(C)OC(=O)N1CCC(ON=C2CCN(c3ccc(C=O)cc3Cl)CC2)CC1` [Example 2-31], the EC50 under setting [2] turned out to be 1.25 µM.
Turning to `CCc1cnc(N2CCC(ON=C3CCN(c4cc(F)c(CC(=O)N5CC[C@H](N)C5)cc4F)CC3)CC2)nc1` [Example 77-12], the EC50 under setting [1] was 0.019 µM.
